Residue numbers refer to the chain shown, from its start. One block for each compound: values may come before it. Residues, ends and D or L forms follow the SMILES beside them.
Experiments:
[1] = target: T1, Crk SH2 domain (Homo sapiens, UniProt P46108); design: method as in earlier work; conditions: N.B. = non binding; cited from earlier work
[2] = target: Nck1 SH2 domain (Homo sapiens, UniProt P16333); design: method as in earlier work; conditions: N.B. = non binding; cited from earlier work
[3] = target: Vav1 SH2 domain (Homo sapiens, UniProt P15498); design: method as in earlier work; conditions: N.B. = non binding; cited from earlier work
Chain of Vav1 SH2 domain (P15498 671-765 limits assumed): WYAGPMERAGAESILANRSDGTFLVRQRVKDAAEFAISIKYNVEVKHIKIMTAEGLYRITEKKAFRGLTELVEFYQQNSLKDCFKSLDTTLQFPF

[4] = target: T2, CrkL SH2 domain (Homo sapiens, UniProt P46109); design: method as in earlier work; conditions: N.B. = non binding; cited from earlier work
T2 sequence (P46109 14-102 limits assumed): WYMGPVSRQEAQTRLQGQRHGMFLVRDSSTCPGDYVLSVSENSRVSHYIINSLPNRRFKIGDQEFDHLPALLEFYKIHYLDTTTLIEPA

[5] = target: Plcg2_N SH2 domain (Homo sapiens, UniProt P16885); design: method as in earlier work; conditions: N.B. = non binding; cited from earlier work
Chain of Plcg2_N SH2 domain (P16885 532-635 limits assumed): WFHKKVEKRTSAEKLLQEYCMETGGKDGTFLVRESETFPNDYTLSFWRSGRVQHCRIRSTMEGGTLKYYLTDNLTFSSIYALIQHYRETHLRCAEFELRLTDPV

[6] = target: T3, Abl2 SH2 domain (Homo sapiens, UniProt P42684); assay: SPOT peptide array; format: binding; conditions: spot intensity as factor of array mean; GST-SH2 0.25 μM
T3 sequence (P42684 173-263 limits assumed): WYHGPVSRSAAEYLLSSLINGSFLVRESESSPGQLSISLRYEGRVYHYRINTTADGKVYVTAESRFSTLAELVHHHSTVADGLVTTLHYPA
Summary of the method: (§1)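 Readout is near-infrared antibody signal: anti-GST primary, labelled secondary, after GST–SH2 fusion protein was applied to cellulose-bound 11-mer phosphopeptides. Spots exceeding threefold the mean of all peptides counted as positive, below the mean as negative, between as indeterminate.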

[7] = target: Grb2 SH2 domain (Homo sapiens, UniProt P62993); assay: SPOT peptide array; format: binding; conditions: spot intensity as factor of array mean; GST-SH2 0.25 μM
Chain of Grb2 SH2 domain (P62993 60-152 limits assumed): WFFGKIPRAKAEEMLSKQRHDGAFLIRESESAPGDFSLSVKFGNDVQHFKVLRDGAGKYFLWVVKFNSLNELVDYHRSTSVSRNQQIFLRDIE
Summary of the method: as §1

[8] = tested on: Grb7 SH2 domain; assay: SPOT peptide array; format: binding; conditions: spot intensity as factor of array mean; GST-SH2 0.25 μM
Summary of the method: as §1

[9] = target: T4, Src SH2 domain (Homo sapiens, UniProt P12931); assay: SPOT peptide array; format: binding; conditions: spot intensity as factor of array mean; GST-SH2 0.25 μM
Summary of the method: as §1

[10] = target: T4, Src SH2 domain; design: method as in earlier work; conditions: SH2 protein microarray; N.B. = non binding; read-out: Protein Microarray (Macbeath) – KD; cited from earlier work
[11] = target: Grb7 SH2 domain; design: method as in earlier work; conditions: SH2 protein microarray; N.B. = non binding; read-out: Protein Microarray (Macbeath) – KD; cited from earlier work
[12] = target: T1, Crk SH2 domain; assay: SPOT peptide array; format: binding; conditions: spot intensity as factor of array mean; GST-SH2 0.25 μM
Summary of the method: as §1

[13] = tested on: Gads SH2 domain; assay: SPOT peptide array; format: binding; conditions: spot intensity as factor of array mean; GST-SH2 0.25 μM
Summary of the method: as §1

[14] = target: Gads SH2 domain; design: method as in earlier work; conditions: SH2 protein microarray; N.B. = non binding; read-out: Protein Microarray (Macbeath) – KD; cited from earlier work
[15] = target: T5, Abl1 SH2 domain (Homo sapiens, UniProt P00519); assay: SPOT peptide array; format: binding; conditions: spot intensity as factor of array mean; GST-SH2 0.25 μM
T5 sequence (P00519 127-217 limits assumed): T3 sequence (P42684 173-263 limits assumed) with S9N, L18G, L35R, T53A, A54S, V58L, T61S, A62S, S67N, V84I
Summary of the method: as §1

[16] = target: T2, CrkL SH2 domain; assay: SPOT peptide array; format: binding; conditions: spot intensity as factor of array mean; GST-SH2 0.25 μM
Summary of the method: as §1

[17] = tested on: Yes SH2 domain; assay: SPOT peptide array; format: binding; conditions: spot intensity as factor of array mean; GST-SH2 0.25 μM
Summary of the method: as §1

[18] = target: Rasa1_N SH2 domain (Homo sapiens, UniProt P20936); assay: SPOT peptide array; format: binding; conditions: spot intensity as factor of array mean; GST-SH2 0.25 μM
Chain of Rasa1_N SH2 domain (P20936 181-272 limits assumed): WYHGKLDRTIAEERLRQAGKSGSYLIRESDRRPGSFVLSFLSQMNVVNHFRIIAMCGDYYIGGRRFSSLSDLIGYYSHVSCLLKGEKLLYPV

[19] = target: Itk SH2 domain (Homo sapiens, UniProt Q08881); assay: SPOT peptide array; format: binding; conditions: spot intensity as factor of array mean; GST-SH2 0.25 μM
Chain of Itk SH2 domain (Q08881 239-338 limits assumed): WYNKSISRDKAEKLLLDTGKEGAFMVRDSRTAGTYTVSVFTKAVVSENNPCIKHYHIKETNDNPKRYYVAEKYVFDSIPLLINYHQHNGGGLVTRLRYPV

[20] = target: Yes SH2 domain; design: method as in earlier work; conditions: SH2 protein microarray; N.B. = non binding; read-out: Protein Microarray (Macbeath) – KD; cited from earlier work

T1 sequence (P46108 13-118 limits assumed): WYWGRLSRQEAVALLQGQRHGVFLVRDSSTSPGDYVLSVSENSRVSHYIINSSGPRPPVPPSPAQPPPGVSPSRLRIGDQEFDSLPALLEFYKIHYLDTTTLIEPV

Compound: CSCC[C@H](NC(=O)[C@@H]1CCCN1C(=O)[C@@H](N)[C@@H](C)O)C(=O)N[C@@H](CC(C)C)C(=O)N[C@@H](C)C(=O)NCC(=O)N[C@H](C(=O)N[C@@H](CO)C(=O)N[C@@H](CCC(=O)O)C(=O)N[C@@H](Cc1ccc(OP(=O)(O)O)cc1)C(=O)N[C@@H](CCC(=O)O)C(=O)N[C@@H](CC(C)C)C(=O)N1CCC[C@H]1C(=O)N[C@@H](CCC(=O)O)C(=O)N[C@@H](CC(=O)O)C(=O)N1CCC[C@H]1C(=O)N[C@@H](CCCNC(=N)N)C(=O)N[C@@H](CC(=O)O)C(=O)O)C(C)C (HELM PEPTIDE1{T.P.M.L.A.G.V.S.E.[O=C([C@H](Cc1ccc(OP(=O)(O)O)cc1)N[*:1])[*:2]].E.L.P.E.D.P.R.D}$$$$V2.0)
Protein Microarray (Macbeath) – KD [1]: N.B. | Protein Microarray (Macbeath) – KD [2]: N.B. | Protein Microarray (Macbeath) – KD [3]: N.B. | Protein Microarray (Macbeath) – KD [4]: N.B. | Protein Microarray (Macbeath) – KD [5]: N.B.

Peptide array intensity (X mean) [6]: <2x X Mean | Peptide array intensity (X mean) [7]: <2x X Mean | Peptide array intensity (X mean) [9]: <2x X Mean
Compound: EIFTLGGSPpYPGVPVEED
Peptide array intensity (X mean) [8]: <2x X Mean | Kd [10]: 1790 nM | Kd [11]: 650 nM

Peptide array intensity (X mean) [12]: <2x X Mean
Compound: ARDIHHIDYpYKKTTNGRD
Peptide array intensity (X mean) [13]: <2x X Mean | Kd [14]: 1010 nM

Peptide array intensity (X mean) [15]: >3x X Mean | Peptide array intensity (X mean) [6]: <2x X Mean | Peptide array intensity (X mean) [16]: <2x X Mean | Peptide array intensity (X mean) [7]: <2x X Mean | Peptide array intensity (X mean) [18]: <2x X Mean | Peptide array intensity (X mean) [19]: <2x X Mean
Compound: QARRPPGLEpYCYNPSHND* [FGFR1 Y583 phosphopeptide; Cys replaced with Ala or Ser on peptide arrays]
Peptide array intensity (X mean) [8]: >3x X Mean | Peptide array intensity (X mean) [17]: <2x X Mean | Kd [20]: 1550 nM | Kd [11]: 1000 nM

— paper PMC3514216, “SRC Homology 2 Domain Binding Sites in Insulin, IGF-1 and FGF receptor mediated signaling networks reveal an extensive potential interactome” (Cell Communication and Signaling : CCS, 2012)
